Results reported in patent US7723070B2, “Overexpression of aminoacyl-tRNA synthetases for efficient production of engineered proteins containing amino acid analogues” (California Institute of Technology, priority 2000, dated 2010).

Tested on: B834(DE3) or CAG18491 hosts with pQE15/pREP4 or pQE15-MRS/pREP4
Assay: Translational activity: mDHFR synthesis, statements covering several bacterial hosts (with pQE15 or pQE15-MRS)
Type: cell-based, E. coli
Conditions: amino acids at 60 mg/liter, both bacterial hosts
Procedure: Methionine analogues were synthesized via alkylation of diethylacetamidomalonate, as previously described (As described in Example I, infra; J. C. M. van Hest, D. A. Tirrell, FEBS Lett. 1998, 428, 68-70). Cultures of B834(DE3)/pQE15-MRS/pREP4 or B834(DE3)/pQE15/pREP4 or CAG18491/pQE15-MRS/pREP4 or CAG18491/pQE15/pREP4 in M9AA media were grown to an optical density of 0.90, and the cells were sedimented by centrifugation. The M9AA medium was prepared by supplementing sterile M9 medium with […] of each of the amino acids, 1 mM MgSO4, 0.2 wt % glucose, 1 mg/ml thiamine chloride, and […] calcium chloride. The antibiotics ampicillin and kanamycin were added at concentrations of 200 mg/l and 35 mg/l, respectively.
Cells were washed three times with M9 salts and resuspended to an optical density of 0.90 in M9 test media containing 19 amino acids plus 1) neither methionine nor analogue (negative control); 2) methionine (60 mg/liter, positive control); or 3) an analogue of interest (60 mg/liter). To test the effect of increasing the level of supplementation of the analogues, a set of experiments was also conducted in which the medium was supplemented with 500 mg/liter of methionine or the amino acid analogue. Expression of mDHFR was induced by addition of 0.4 mM isopropyl β-D-thiogalactopyranoside (IPTG), and protein synthesis was monitored after 4.5 hours.

## C=CCOC[C@H](N)C(=O)O (racemic) [Analogue 10, o-allylserine]
  target protein mDHFR in SDS-PAGE: not observed

## C#CCC(N)C(=O)O (stereo not drawn) [Analogue 13, propargylglycine]
  target protein mDHFR in SDS-PAGE: not observed

## NC(CCCC(F)(F)F)C(=O)O (racemic) [Analogue 6, DL-6,6,6-trifluoro-2-amino hexanoic acid]
  target protein mDHFR in SDS-PAGE: not observed
